The test system of one data set is 15 mm radial defect. As to the kind of experiment: In vivo study in rabbit radial defect model, radiographs. The following applies: Scaffold I coated intraoperatively plus autogenic bone marrow, three weeks post op. The protocol: An evaluation of two small molecule compounds, dexamethasone and 20S-hydroxycholesterol, was performed in the rabbit radial defect model. Scaffold I was coated with the compounds intraoperatively, combined with autogenic bone marrow, and implanted in a 15 mm radial defect. Radiographs were taken at 3 and 6 weeks post-operatively, after which the animals were sacrificed and explants analyzed by micro CT.

For the next data set, the system named is L929. As to the kind of experiment: In vitro L929 cytotoxicity assay (CTG). It counts as cell-based. The following applies: L929 cells; read-out: Cytotox (CTG) CC50. From the text:
(§1) Samples from several classes of small molecule compounds including, corticosteroids, glucocorticoids, oxysterols, compounds that impact the HMG coA reductase pathway and compounds that upregulate intracellular cAMP were screened for osteoinductive potential with an alkaline phosphatase (ALP) assay in primary human mesenchymal stem cells (MSCs). Sample compounds were screened over a dose range in a multiwell plate format using DNA to normalize the ALP response as a function of cell number. These dose response curves allowed for the determination of an EC50 to measure relative potency of the osteogenic response between compounds. FIG. 1 is a representative dose response curve for two of the corticosteroid compounds tested, clobetasol propionate and dexamethasone. In addition to the functional analysis, certain identified compounds were run through an in vitro L929 cytotoxicity assay to determine a CC50.

For data set [1], the system named is primary human mesenchymal stem cells (MSCs). The data set can be described thus: Osteoinductive (OI) alkaline phosphatase (ALP) assay, dose response, ALP normalised to DNA. It counts as cell-based.
Text: as §1

Data set [2] concerns MSCs. The data set can be described thus: Relative potency: ALP assay after short exposure times, then basal media to assay completion. It counts as cell-based, human. The following applies: for EC50: MSCs, then basal media. The protocol:
One part of this technology may involve coating an osteoconductive scaffold with an osteoinductive small molecule compound to thereby deliver the compound locally when the scaffold is implanted. Consequently, the optimal time and concentration profile required for the compound to remain at the site in order to influence an osteogenic outcome was determined. Initially, potency was determined by looking at exposure over 6 days. In order to better understand the optimal exposure profile, MSCs were treated over a series of dose ranges for exposure times starting at 1 hour out to 4 days, after which the compound treated media was removed and the cells were allowed to continue to assay completion under basal media conditions. This allowed for the determination of the relative potency of the compounds over short exposure periods and gave an indication of the release requirements that would be necessary to achieve the desired osteogenic outcome.
FIG. 2 is a representative relative potency graph of a corticosteroid, fluticasone propionate, based on the results shown in Table 2.

The nature of data set [3]: Excipient testing at variable pH levels: solubility. The data set is classed as physicochemical. The protocol: The goal of these experiments was to increase the solubility of the compound such that increased doses could be added to material scaffolds. In a set of experiments, the solubility of clobetasol propionate and fluticasone propionate were evaluated at three distinct pH levels with a series of excipients. Phosphate buffered solutions were prepared at pH levels 3 (Low), and 7 (Medium), and a Tris buffered solution was prepared at pH level 9 (High). Solubility of the compound in the presence of a given excipient was measured at the individual pH levels as a fold increase over the solubility of the compound with no excipient present. Data regarding the solubility of clobetasol propionate in combination with the excipients is given below in Table 3. Data regarding the solubility of fluticasone propionate in combination with the excipients is given below in Table 4.

Data set [4] deals with MSCs. As to the kind of experiment: In vitro 3-D efficacy: ALP RNA expression in MSCs seeded on coated Scaffold I. It counts as cell-based. The following applies: compound precoated on Scaffold I, MSCs cultured three days, versus basal conditions. As to the method: The osteoinductive potential of selected small molecule compounds were determined in vitro by seeding MSCs onto a three dimensional b-TCP polymer composite scaffold, Scaffold I, which had been coated with selected compounds prior to seeding. These cells were allowed to culture for a period of time after which they were assayed for alkaline phosphatase (ALP) RNA content, an early marker of osteogenic differentiation. FIG. 7 is a graphical illustration showing the amount of ALP RNA expression in the MSCs, expressed as a fold increase over basal conditions (standard culture conditions). In this example, dexamethasone (a control for the assay) was added to the culture media in solution whereas in all other cases the compounds were precoated on to Scaffold I followed by addition of the MSCs. The cells were then cultured for three days and assayed for their level of osteogenic response via ALP RNA expression.

The mark [5] stands for this setting: primary human MSCs, exposure over 6 days, read-out: OI Assay (ALP) EC50.

Like-named read-outs stand apart in the source and are kept apart here.

The term CC50 denotes the concentration at which the toxic effect on the cells reaches its halfway point. Usually EC50 stands for the midpoint of the concentration-response curve.

Turning to `CC(C)CCC[C@](C)(O)[C@H]1CC[C@H]2[C@@H]3CC=C4C[C@@H](O)CC[C@]4(C)[C@H]3CC[C@@]21C` [20a-hydroxy-cholesterol], the “radiographs, periosteal response” value with 15 mm radial defect is on record as “appeared to have an enhanced periosteal response”. Moreover, the CC50 with L929 was > 12000 nM. In addition, in data set [1] (setting [5]), the EC50 is > 12000 nM.

Take `CCC(=O)O[C@]1(C(=O)SCF)[C@H](C)C[C@H]2[C@@H]3C[C@H](F)C4=CC(=O)C=C[C@]4(C)[C@@]3(F)[C@@H](O)C[C@@]21C` [Fluticasone propionate]: the EC50 was found to be 0.194 nM with MSCs [2] (1 hr exposure, read-out: EC50 1 hr.); 0.0422 nM in the data set on MSCs [2] (4 hr exposure, read-out: EC50 4 hr.); 0.0676 nM in the data set on MSCs [2] (24 hr exposure, read-out: EC50 24 hr.); 0.0042 nM with MSCs [2] (72 hr exposure, read-out: EC50 72 hr); 0.0065 nM in data set [1] (MSCs, 6 days exposure, read-out: EC50 6 days); 0.0065 nM in data set [1] (setting [5]). Moreover, the “Max Osteogenic Response” value with MSCs [2] (time range to reach the full response of the ALP assay control (dexamethasone at 10 nM for 6 days)) was 48 to 72 h. In addition, the CC50 in the data set with L929 is > 1000 nM. The “solubility, fold increase over no excipient” value came to 55.01 fold in data set [3] (excipient Captisol, pH 3 (Low), phosphate buffered); 80.81 fold in data set [3] (excipient Captisol, pH 7 (Med), phosphate buffered); 67.60 fold in data set [3] (excipient Captisol, pH 9 (High), Tris buffered); 94.00 fold in data set [3] (excipient Cremophor_EL, pH 3 (Low), phosphate buffered); 138.82 fold in data set [3] (excipient Cremophor_EL, pH 7 (Med), phosphate buffered); 89.92 fold in data set [3] (excipient Cremophor_EL, pH 9 (High), Tris buffered). The “solubility, fold increase over no excipient” value in data set [3] (excipient DMA, pH 3 (Low), phosphate buffered) is given as 6.67 fold; in data set [3] (excipient DMA, pH 7 (Med), phosphate buffered), 8.41 fold; in data set [3] (excipient DMA, pH 9 (High), Tris buffered) it was 7.07 fold; in data set [3] (excipient DMSO, pH 3 (Low), phosphate buffered), 1.79 fold; in data set [3] (excipient DMSO, pH 7 (Med), phosphate buffered), 1.96 fold; in data set [3] (excipient DMSO, pH 9 (High), Tris buffered), 1.84 fold. The “solubility, fold increase over no excipient” value in data set [3] (excipient Dimethyl_isosorbide, pH 3 (Low), phosphate buffered) came out at 4.14 fold; in data set [3] (excipient Dimethyl_isosorbide, pH 7 (Med), phosphate buffered), 5.78 fold; in data set [3] (excipient Dimethyl_isosorbide, pH 9 (High), Tris buffered) it was 5.01 fold; in data set [3] (excipient Labrasol, pH 3 (Low), phosphate buffered), 54.03 fold; in data set [3] (excipient Labrasol, pH 7 (Med), phosphate buffered), 85.96 fold; in data set [3] (excipient Labrasol, pH 9 (High), Tris buffered), 79.23 fold. The “solubility, fold increase over no excipient” value in data set [3] (excipient NMP, pH 3 (Low), phosphate buffered) is listed as 6.39 fold; in data set [3] (excipient NMP, pH 7 (Med), phosphate buffered) it was 9.02 fold; in data set [3] (excipient NMP, pH 9 (High), Tris buffered) it was 7.96 fold; in data set [3] (excipient PEG400, pH 3 (Low), phosphate buffered), 3.22 fold; in data set [3] (excipient PEG400, pH 7 (Med), phosphate buffered), 4.32 fold; in data set [3] (excipient PEG400, pH 9 (High), Tris buffered), 3.55 fold. In addition, the “solubility, fold increase over no excipient” value in data set [3] (excipient PVP, pH 3 (Low), phosphate buffered) is recorded as 2.21 fold; in data set [3] (excipient PVP, pH 7 (Med), phosphate buffered), 3.98 fold; in data set [3] (excipient PVP, pH 9 (High), Tris buffered), 2.73 fold; in data set [3] (excipient Propylene_glycol, pH 3 (Low), phosphate buffered), 5.63 fold; in data set [3] (excipient Propylene_glycol, pH 7 (Med), phosphate buffered) it was 7.89 fold; in data set [3] (excipient Propylene_glycol, pH 9 (High), Tris buffered) it was 5.90 fold. Moreover, the “solubility, fold increase over no excipient” value is on record as 3.82 fold in data set [3] (excipient Solutol_HS_15, pH 3 (Low), phosphate buffered); 5.00 fold in data set [3] (excipient Solutol_HS_15, pH 7 (Med), phosphate buffered); 4.47 fold in data set [3] (excipient Solutol_HS_15, pH 9 (High), Tris buffered); 194.37 fold in data set [3] (excipient Tweens, pH 3 (Low), phosphate buffered); 272.98 fold in data set [3] (excipient Tweens, pH 7 (Med), phosphate buffered); 231.06 fold in data set [3] (excipient Tweens, pH 9 (High), Tris buffered). In addition, in the data set with MSCs [4], the “ALP RNA expression (osteogenic differentiation of MSCs)” value was “upregulated osteogenic differentiation of MSCs significantly”.

The values are drawn from patent US8642065B2, “Osteogenic promoting implants and methods of inducing bone growth” (DePuy Synthes Products, LLC, priority 2011, dated 2014).
